The text below walks through data of patent publication US10858360B2, “Tricyclic gyrase inhibitors” (priority 2011, dated 2020).

In brackets after ≈: the same amount, converted by molar mass. Bounds are passed on as bounds.

By MIC is commonly meant the least concentration at which growth counts as inhibited. Lower therefore signals inhibition by little substance.

The test system of one assay is E. coli ATCC 25922. In words: MIC, E. coli ATCC 25922. The class given is cell-based. The conditions noted are these: Alamar Blue read after overnight incubation at 35° C.; for MIC Ec: E. coli; for MIC: Escherichia coli, ATCC25922, E. coli.
In a further assay the test system is S. aureus ATCC 13709. In words: MIC, S. aureus ATCC 13709 (Alamar Blue broth microdilution). The class given is cell-based. The conditions noted are these: Alamar Blue read after overnight incubation at 35° C.; for MIC Sa: S. aureus; for MIC: Staphylococcus aureus, ATCC13709, S. aureus. For orientation: The colour change of resazurin is a common sign of viable cells or microbes.

`CNc1cc(F)cc2c1[nH]c1nc(Oc3cncc(C(N)=O)c3)nc(N3CC(N)C4(CC4)C3)c12` (stereo not drawn) [4.238]: in the assay with E. coli ATCC 25922, the “MIC Ec” value was more than 16 mg/L. For the same molecule, in the assay with S. aureus ATCC 13709, the “MIC Sa” value was 2 mg/L (≈ 4.32 µM).

As for `CCc1cc(F)cc2c1[nH]c1nc(Oc3cncnc3)nc(N3CC4CC(N)C4C3)c12` (stereo not drawn) [2.5], the “MIC Ec” value against E. coli ATCC 25922 is 2 mg/L (≈ 4.77 µM). Also, the “MIC Sa” value in the assay on S. aureus ATCC 13709 is not above 0.5 mg/L.

In the case of `CNc1cccc2c1[nH]c1nc(Oc3cnc4cccnc4c3)nc(N3CC(N)C4(CC4)C3)c12` (stereo not drawn) [3.52], the minimum inhibitory concentration (MIC) in the assay on E. coli ATCC 25922 and against S. aureus ATCC 13709 was not above 0.5 mg/L each time.

Turning to `COc1cccc2c1[nH]c1nc(Oc3cncnc3)nc(N3CCC(N)C3)c12` (stereo not drawn) [2.10], the “MIC Ec” value in the assay on E. coli ATCC 25922 was 32 mg/L (≈ 84.8 µM). The “MIC Sa” value in the assay on S. aureus ATCC 13709 turned out to be 2 mg/L (≈ 5.3 µM).

`CNc1cc(F)cc2c1[nH]c1nc(Oc3cncnc3)nc(N3CC[C@@]4(C[C@H]4N)C3)c12` [4.014]: the minimum inhibitory concentration (MIC) against E. coli ATCC 25922 is 1 mg/L (≈ 2.38 µM); with S. aureus ATCC 13709, not above 0.5 mg/L.

Regarding `CNc1cc(F)cc2c1[nH]c1nc(Oc3cnc(SC)nc3)nc(N3CC4CC(N)C4C3)c12` (stereo not drawn) [4.196], the minimum inhibitory concentration (MIC) against E. coli ATCC 25922 and against S. aureus ATCC 13709 was not above 0.5 mg/L in each case.

In the case of `CNc1cccc2c1[nH]c1nc(Oc3cncc(-c4nnn(C)n4)c3)nc(N3CC4C(N)C4C3)c12` (stereo not drawn) [3.24], the MIC came to 8 mg/L (≈ 17 µM) in the assay with E. coli ATCC 25922 and 2 mg/L (≈ 4.26 µM) in the assay with S. aureus ATCC 13709.

`CNc1cccc2c1[nH]c1nc(Oc3cnc(C)nc3)nc(N3CC4C(C3)C4NCC3CC3)c12` (stereo not drawn) [3.14]: the minimal inhibitory concentration (MIC) against E. coli ATCC 25922 was 2 mg/L (≈ 4.38 µM); in the assay on S. aureus ATCC 13709, not above 0.5 mg/L.

As for `CNc1cccc2c1[nH]c1nc(Sc3cnc4cccnc4c3)nc(N3CCC(CO)C3)c12` (stereo not drawn) [1.53], the minimum inhibitory concentration (MIC) was 8 mg/L (≈ 17.5 µM) in the assay with E. coli ATCC 25922 and not above 0.5 mg/L against S. aureus ATCC 13709.

For `CNc1cc(F)cc2c1[nH]c1nc(Oc3cnc(C(C)(C)C)nc3)nc(N3CC4CC3C[C@H]4N)c12` (stereo partly drawn) [4.441], the minimum inhibitory concentration (MIC) against E. coli ATCC 25922 and in the assay on S. aureus ATCC 13709 was not above 0.5 mg/L each time.

Take `CNc1cc(F)cc2c1[nH]c1nc(Oc3cnc4cccnc4c3)nc(N3C[C@@H]4[C@H](C3)[C@@]4(N)C(N)=O)c12` [4.039]: the MIC was 2 mg/L (≈ 4 µM) in the assay on E. coli ATCC 25922 and not above 0.5 mg/L against S. aureus ATCC 13709.

With `CNc1cccc2c1[nH]c1nc(Oc3cncnc3)nc(N3C/C(=N\OC)[C@@H](N)C3)c12` [3.62], the minimum inhibitory concentration (MIC) in the assay on E. coli ATCC 25922 was 8 mg/L (≈ 19.1 µM); in the assay with S. aureus ATCC 13709 it was not above 0.5 mg/L.

For `CNc1cc(F)cc2c1[nH]c1nc(Oc3cnc(C4CC4)nc3)nc(N3CC4CCC3C4N)c12` (stereo not drawn) [4.256], the minimum inhibitory concentration (MIC) with E. coli ATCC 25922 and in the assay on S. aureus ATCC 13709 was not above 0.5 mg/L each time.

For the molecule `CNc1cc(F)c(F)c2c1[nH]c1nc(Oc3cnc(C)nc3)nc(N3CC4CC(N)C4C3)c12` (stereo not drawn) [5.03], the “MIC Ec” value with E. coli ATCC 25922 was not above 0.5 mg/L. Moreover, the “MIC Sa” value with S. aureus ATCC 13709 is not above 0.5 mg/L.

As for `CNc1cccc2c1[nH]c1nc(Oc3cncnc3)nc(N3CC[C@@H](N)C3)c12` [3.4], the figures for the minimal inhibitory concentration (MIC) against E. coli ATCC 25922 and against S. aureus ATCC 13709 were not above 0.5 mg/L and 0.5 mg/L (≈ 1.33 µM), respectively.

In the case of `CNc1cc(F)cc2c1[nH]c1nc(Oc3cnc(C)nc3)nc(N[C@@H]3CC4CC3CN4)c12` (stereo partly drawn) [4.155], the figures for the minimum inhibitory concentration (MIC) against E. coli ATCC 25922 and against S. aureus ATCC 13709 were more than 16 mg/L and 2 mg/L (≈ 4.6 µM), respectively.

In the case of `CNc1cc(F)cc2c1[nH]c1nc(Oc3cncc(C#N)c3)nc(N3CCC4(CC4N)C3)c12` (stereo not drawn) [4.052], the MIC in the assay on E. coli ATCC 25922 and in the assay on S. aureus ATCC 13709 was not above 0.5 mg/L each time.

For the molecule `CNc1cc(F)cc2c1[nH]c1nc(Oc3cnc4cccnc4c3)nc(N3CC4CC4(N)C3)c12` (stereo not drawn) [4.036], the minimal inhibitory concentration (MIC) in the assay with E. coli ATCC 25922 and in the assay on S. aureus ATCC 13709 was not above 0.5 mg/L each time.

Turning to `CNc1cc(F)cc2c1[nH]c1nc(Oc3cnc4c(c3)C(=O)N(C)C4C)nc(N3CC4CC(N)C4C3)c12` (stereo not drawn) [4.397], in the assay with E. coli ATCC 25922, the “MIC Ec” value was not above 0.5 mg/L. Also, the “MIC Sa” value in the assay with S. aureus ATCC 13709 was not above 0.5 mg/L.

Regarding `CNc1cc(F)cc2c1[nH]c1nc(Oc3cnc4cccnc4c3)nc(N3CC[C@]4(C[C@@H]4N)C3)c12` [4.040], the minimal inhibitory concentration (MIC) against E. coli ATCC 25922 and against S. aureus ATCC 13709 was not above 0.5 mg/L each time.

Consider `CNc1cc(F)cc2c1[nH]c1nc(Oc3cnc4ccoc4c3)nc(N3CC(N)C4(CC4)C3)c12` (stereo not drawn) [4.292], for which the “MIC Ec” value against E. coli ATCC 25922 was not above 0.5 mg/L. Moreover, the “MIC Sa” value against S. aureus ATCC 13709 is not above 0.5 mg/L.

In the case of `Cc1ncc(Oc2nc(N3CC(N)C4(CC4)C3)c3c(n2)[nH]c2c(N)cc(F)cc23)cn1` (stereo not drawn) [2.9], in the assay with E. coli ATCC 25922, the “MIC Ec” value turned out to be 16 mg/L (≈ 38.1 µM). Also, the “MIC Sa” value in the assay on S. aureus ATCC 13709 turned out to be 16 mg/L (≈ 38.1 µM).

As for `CNc1cc(F)cc2c1[nH]c1nc(Oc3cnc(NC4CC4)nc3)nc(N3CCC(N)C3)c12` (stereo not drawn) [4.222], the “MIC Ec” value in the assay on E. coli ATCC 25922 is not above 0.5 mg/L. The “MIC Sa” value in the assay with S. aureus ATCC 13709 is not above 0.5 mg/L.

Regarding `CNc1cc(F)cc2c1[nH]c1nc(Oc3cnc(N4CCC4)nc3)nc(N3C[C@H](N)C4(CC4)C3)c12` [4.297], the minimum inhibitory concentration (MIC) against E. coli ATCC 25922 and against S. aureus ATCC 13709 was not above 0.5 mg/L each time.

On to `CNc1cccc2c1[nH]c1nc(Oc3cncnc3)nc(-c3cn[nH]c3)c12` [3.9], for which the MIC against E. coli ATCC 25922 was 32 mg/L (≈ 89.3 µM); against S. aureus ATCC 13709, 2 mg/L (≈ 5.58 µM).

Take `CNc1cc(F)cc2c1[nH]c1nc(Oc3ccc(C#N)nc3)nc(N3CCC4(C[C@H]4N)C3)c12` (stereo partly drawn) [4.334]: the “MIC Ec” value against E. coli ATCC 25922 was 8 mg/L (≈ 18 µM). The “MIC Sa” value against S. aureus ATCC 13709 was not above 0.5 mg/L.

Take `CNc1cc(F)cc2c1[nH]c1nc(Oc3cnc(C)nc3)nc(NC3CCCC[C@@H]3N)c12` (stereo partly drawn) [4.109]: the “MIC Ec” value against E. coli ATCC 25922 is 1 mg/L (≈ 2.29 µM). The “MIC Sa” value in the assay with S. aureus ATCC 13709 was not above 0.5 mg/L.
